Source: patent US11046798B2, “Phosphono-phosphate containing compounds and polymers” (The Procter & Gamble Company, priority 2017, dated 2021)
Where “and” joins values, the source holds several entries; their conditions need not be identical. Equal entries are not always repeated.

Assays:
[1] = Powder Stain Prevention Model (PSPM)
Text: The Powder Stain Prevention Model (PSPM) is a screening technique where hydroxyapatite powder (HAP) is used as a substrate for stain accumulation. The general purpose of this technique is to illustrate and quantify the stain prevention ability or staining potential of chemical agents used in oral care. Hydroxyapatite powder provides a large surface area to which tea chromogens adsorb. Pretreatment of HAP with oral care actives, either in rinse or dentifrice form, results in different levels of stain accumulation depending upon the ability of the actives to block or enhance the binding of these chromogens onto HAP surface. The magnitude of stain can then be quantified by image analysis.
Tube is vortexed for 30 seconds to fully suspend HAP in treatment followed by centrifugation at 15,000 rpm for 15 mins. After centrifugation, supernatant is decanted and pellet redistributed by adding 25 ml of water, vortexing, centrifuging at 15,000 rpm for 15 mins, and decanting-making sure pellet breaks up during vortexing. The wash cycle is repeated two more times.
After final water wash, 20 ml of filtered tea (1 Lipton tea bag per 100 ml of hot water seeped for 5 minutes, filtered and used at 50° C.) is added to each pellet and vortexed for 30 seconds to fully suspend HAP in tea. Powder suspension is centrifuged at 15,000 rpm for 15 mins and decanted. About 25 ml of water is added to the tube, vortexed and then centrifuging at 15,000 rpm for 15 mins. The liquid is decanted and wash cycle is repeated 2 more times.
Vortex pellet in approximately 10 ml of water until fully suspended followed by filtering under vacuum onto a Millipore filter disk (Membrane Filters 4.5 μm, 47 mm Catalog #HAWP04700, Millipore Corporation, Bedford, Mass.). Prepare a control disk using. −200 mg of untreated, unstained HAP. Filter disks are then dried overnight in flat position and then laminated.
Whitelight system: HAP disk (untreated HAP control and HAP treatments) is placed in a stabilized sample holder. The color is measured using a digital camera having a lens equipped with a polarizer filter (Camera model no. CANON EOS 70D from Canon Inc., Melville, N.Y. with NIKON 55 mm micro-NIKKOR lens with adapter). The light system is provided by Dedo lights (model number DLH2) equipped with 150 watt, 24V bulbs model number (Xenophot model number HL X64640), positioned about 30 cm apart (measured from the center of the external circular surface of one of the glass lens through which the light exits to the other) and aimed at a 45 degree angle such that the light paths meet on the HAP disk. Image analysis is performed using Whitelight with Ultragrab, Optimas and Giant Imaging software.
Usual controls for a single polymer PSPM are water as a treatment followed by exposure to tea, and water without exposure to tea. […]

[2] = Powder Stain Removal Model (PSRM)
Text: The Powder Stain Removal Model (PSRM) is a screening technique where hydroxyapatite powder (HAP) is used as a substrate for stain accumulation. The purpose of this technique is to illustrate and quantify the stain removal properties of chemical agents used in oral care. Hydroxyapatite powder provides a large surface area to which tea chromogens adsorb. […] The magnitude of stain removal can then be quantified by image analysis. A trial of this model can be completed in three days. Steps involved in PSRM are described below.
Prepare large batch of tea stain HAP by stirring 10 g of HAP powder in 200 ml of filtered tea for 5 minutes. Divide into centrifuge tubes and centrifuge at 15,000 rpm for 15 mins. Wash pellet by adding in 25 ml of water, vortexing, centrifuging at 15,000 rpm for 15 mins, and pipet out liquid. Make sure pellet breaks up during vortexing. Repeat wash.
Place centrifuge tubes in convection oven (55-65° C.) overnight to dry stained HAP. Once dried, pool stained HAP together and grind to a fine powder with pestle and mortar.
Tube is vortexed for I minute to fully suspend HAP in treatment followed by centrifugation at 15,000 rpm for 15 mins. After centrifugation, supernatant is decanted and pellet redistributed by adding 25 ml of water, vortexing, centrifuging at 15,000 rpm for 15 mins, and decanting-making sure pellet breaks up during vortexing. The wash cycle is repeated one more time.
Vortex pellet in approximately 10 ml of water until fully suspended followed by filtering under vacuum onto a Millipore filter disk (Membrane Filters 4.5 μm, 47 mm Catalog #HAWP04700, Millipore Corporation, Bedford, Mass.). Prepare a control disk using=200 mg of untreated, stained HAP. Filter disks are then dried overnight in flat position and then laminated.
Whitelight system: HAP disk (untreated HAP control and HAP treatments) is placed in a stabilized sample holder. The color is measured using a digital camera camera having a lens equipped with a polarizer filter (Camera model no. CANON EOS 70D from Canon Inc., Melville, N.Y. with NIKON 55 mm micro-NIKKOR lens with adapter). The light system is provided by Dedo lights (model number DLH2) equipped with 150 watt, 24V bulbs model number (Xenophot model number HL X64640), positioned about 30 cm apart (measured from the center of the external circular surface of one of the glass lens through which the light exits to the other) and aimed at a 45 degree angle such that the light paths meet on the HAP disk. Image analysis is performed using Whitelight with Ultragrab, Optimas and Giant Imaging software.
Usual controls for a single polymer PSRM are water as a treatment followed by exposure to tea, and water without exposure to tea. Additionally, pyrophosphate and polyphosphate are run as internal controls. […]

O=P(O)(O)OP(=O)(O)O [Pyrophosphate]
Delta L [1]: 16.3 | PSPM (ΔL) [1]: 12.2-16.0 | PSPM ΔL [1]: 18.0 and 14.3 | Delta L [2]: 14.2 | PSRM (ΔL) [2]: 13.0-18 | PSRM ΔL [2]: 12.4 and 13.5
